The values that follow come from patent publication US20230219962A1, “PYRAZOLO[4,3-d]PYRIMIDINE DERIVATIVES AND METHODS OF USE THEREOF FOR THE TREATMENT OF CELLULAR PROLIFERATIVE DISORDERS” (Merck Sharp & Dohme LLC, priority 2020, published 2023).

One assay concerns the target T1, hTLR7 (Homo sapiens, UniProt Q9NYK1).
T1 construct: host or cells: HEK-Blue hTLR7 cells (HEK293-derived, own knowledge)
T1 sequence (Q9NYK1 27-1049): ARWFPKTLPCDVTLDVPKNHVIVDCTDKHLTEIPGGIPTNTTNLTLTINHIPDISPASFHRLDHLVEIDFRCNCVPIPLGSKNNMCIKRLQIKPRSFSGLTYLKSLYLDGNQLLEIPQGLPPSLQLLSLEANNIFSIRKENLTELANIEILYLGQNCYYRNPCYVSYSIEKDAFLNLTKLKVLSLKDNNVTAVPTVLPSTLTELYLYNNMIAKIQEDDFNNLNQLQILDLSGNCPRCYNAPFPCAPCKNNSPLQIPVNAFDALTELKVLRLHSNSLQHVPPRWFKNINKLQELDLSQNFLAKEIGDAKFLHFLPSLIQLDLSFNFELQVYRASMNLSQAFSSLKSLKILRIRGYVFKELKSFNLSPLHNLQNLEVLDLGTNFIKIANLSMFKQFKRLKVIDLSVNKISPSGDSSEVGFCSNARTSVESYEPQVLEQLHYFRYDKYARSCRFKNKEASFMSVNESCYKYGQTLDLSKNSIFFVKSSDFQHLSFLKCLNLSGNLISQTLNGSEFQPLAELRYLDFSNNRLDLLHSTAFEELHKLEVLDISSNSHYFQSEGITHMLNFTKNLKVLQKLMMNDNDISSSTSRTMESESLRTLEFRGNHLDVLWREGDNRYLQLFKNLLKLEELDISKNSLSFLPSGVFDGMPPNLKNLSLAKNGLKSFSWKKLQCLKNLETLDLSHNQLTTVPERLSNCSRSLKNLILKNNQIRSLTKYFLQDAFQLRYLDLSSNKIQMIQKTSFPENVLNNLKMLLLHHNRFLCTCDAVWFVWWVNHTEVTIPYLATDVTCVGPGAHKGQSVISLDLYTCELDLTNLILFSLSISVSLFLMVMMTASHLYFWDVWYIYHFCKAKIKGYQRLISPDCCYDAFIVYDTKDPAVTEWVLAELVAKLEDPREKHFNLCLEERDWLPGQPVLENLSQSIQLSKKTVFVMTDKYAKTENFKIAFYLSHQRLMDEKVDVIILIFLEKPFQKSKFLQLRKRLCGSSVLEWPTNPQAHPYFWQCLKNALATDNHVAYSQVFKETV
Nature of the assay: Human TLR7 Reporter Assay. It is filed as cell-based. The settings on record: HEK-Blue hTLR7 cells, 16 hours, normalized to CL097 (6 μM) and DMSO. The method in brief: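 HEK-Blue hTLR7 reporter cells (20,000/well) incubated 16 h at 37 °C with 10-point 3-fold compound dilutions; SEAP read by absorbance at 620 nm. Effects normalized between CL097 (6 μM) and DMSO controls; EC50 from 4-parameter fit.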

The target of another assay is T2, hTLR8 (Homo sapiens, UniProt Q9NR97).
T2 construct: host or cells: HEK-Blue hTLR8 cells (HEK293-derived, own knowledge)
T2 sequence (Q9NR97 27-1041): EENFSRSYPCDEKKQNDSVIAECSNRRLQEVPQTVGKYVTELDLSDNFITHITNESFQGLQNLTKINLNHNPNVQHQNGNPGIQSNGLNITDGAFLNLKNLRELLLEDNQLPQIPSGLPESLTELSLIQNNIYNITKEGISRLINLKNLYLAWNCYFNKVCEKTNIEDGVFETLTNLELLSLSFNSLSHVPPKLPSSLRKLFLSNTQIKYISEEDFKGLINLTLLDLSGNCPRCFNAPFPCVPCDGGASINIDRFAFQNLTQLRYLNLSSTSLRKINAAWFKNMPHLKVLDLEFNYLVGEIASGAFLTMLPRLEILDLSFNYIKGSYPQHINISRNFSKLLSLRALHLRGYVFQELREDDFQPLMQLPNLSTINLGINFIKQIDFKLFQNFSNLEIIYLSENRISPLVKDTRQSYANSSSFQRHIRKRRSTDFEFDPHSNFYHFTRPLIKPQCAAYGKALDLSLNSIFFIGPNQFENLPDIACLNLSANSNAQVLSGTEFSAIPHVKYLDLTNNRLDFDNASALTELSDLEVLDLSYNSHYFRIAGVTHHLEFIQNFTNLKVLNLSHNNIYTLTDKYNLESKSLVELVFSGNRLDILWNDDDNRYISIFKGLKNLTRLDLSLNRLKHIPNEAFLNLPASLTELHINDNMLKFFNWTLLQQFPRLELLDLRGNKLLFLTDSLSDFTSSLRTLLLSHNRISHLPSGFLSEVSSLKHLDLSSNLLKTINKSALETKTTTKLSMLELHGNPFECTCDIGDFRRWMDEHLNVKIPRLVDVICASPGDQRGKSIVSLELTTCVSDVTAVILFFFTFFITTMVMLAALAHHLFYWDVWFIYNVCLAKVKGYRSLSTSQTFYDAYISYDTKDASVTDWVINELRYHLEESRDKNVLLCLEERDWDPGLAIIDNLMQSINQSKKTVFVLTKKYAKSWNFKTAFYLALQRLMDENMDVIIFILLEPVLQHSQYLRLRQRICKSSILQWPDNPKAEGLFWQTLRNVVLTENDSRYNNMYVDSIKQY
Briefly: Human TLR8 Reporter Assay. The settings on record: HEK-Blue hTLR8 cells, 16 hours, normalized to tl8-506 (1 μM) and DMSO. It is filed as cell-based. The method in brief:
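HEK-Blue hTLR8 cells (20,000/well) incubated 16 h at 37 °C with 10-point 3-fold compound dilutions in HEK-Blue Detection medium; reporter read as absorbance at 620 nm. Effects normalized between DMSO and tl8-506 (1 μM); EC50 from 4-parameter fit.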

As to `CCC[C@H](C)Nc1nc(N)nc2cn(Cc3c(OC)cc(CNC)cc3OC)nc12` [Compound 190], the half-maximal effective concentration (EC50) at hTLR7 is 187 nM; on hTLR8, 2210 nM.
For `CCCCNc1nc(N)nc2cn(Cc3ccc(CN4CC(N)C4)cc3OC)nc12` [Compound 191] the same measures were 541 nM and 860 nM.
On the same counts, the results for `CCCCNc1nc(N)nc2cn(Cc3c(OC)cc(CN4CC(N)C4)cc3OC)nc12` [Compound 192] are 653 nM and 1160 nM.
For `CCCCNc1nc(N)nc2cn(Cc3ccc(C(C)NC)cc3OC)nc12` (stereo not shown) [Compound 193] the same measures were 57.7 nM and 106 nM.
Regarding `CCCCNc1nc(N)nc2cn(Cc3ccc(C(C)NC)cc3OC)nc12` (stereo not shown) [Compound 194], the EC50 at hTLR7 turned out to be 139 nM; at hTLR8, 137 nM.
On the same counts, the results for `CCC[C@@H](CO)Nc1nc(N)nc2cn(Cc3ncc(CNC)cc3OC)nc12` [Compound 195] are 1590 nM and 785 nM.
Turning to `CCCCNc1nc(N)nc2cn(Cc3ccc(C4CCNC4)cc3)nc12` (stereo not shown) [Compound 196], the results for the EC50 on hTLR7 and at hTLR8 were 456 nM and 756 nM, respectively.
On the same counts, the results for `CCCCNc1nc(N)nc2cn(Cc3cn(C)nc3OC)nc12` [Compound 197] are 277 nM and 1590 nM.
On to `CCCCNc1nc(N)nc2cn(Cc3ccc(C4CCNC4)cc3)nc12` (stereo not shown) [Compound 198], for which the concentration for a half-maximal effect (EC50) at hTLR7 was found to be 396 nM; at hTLR8, 835 nM.
On to `CCC[C@@H](CO)Nc1nc(N)nc2cn(Cc3c(OC)cc(CN(C)C)cc3OC)nc12` [Compound 199], for which the figures for the EC50 on hTLR7 and on hTLR8 were 108 nM and 39.9 nM, respectively.
With `CCCCNc1nc(N)nc2cn(Cc3ccc(C4CCNC4=O)cc3)nc12` (stereo not shown) [Compound 200], the results for the concentration giving a half-maximal response (EC50) at hTLR7 and on hTLR8 were 185 nM and 4900 nM, respectively.
`CCCCNc1nc(N)nc2cn(Cc3ccc(C4CCC(=O)N4)cc3)nc12` (stereo not shown) [Compound 201]: the EC50 worked out at 539 nM on hTLR7 and 3260 nM at hTLR8.
For `CCCCNc1nc(N)nc2cn(Cc3ccc(C4CCNC4=O)cc3)nc12` (stereo not shown) [Compound 202] the same measures were 354 nM and 3470 nM.
With `CCCCNc1nc(N)nc2cn(Cc3ccc(C4CCC(=O)N4)cc3)nc12` (stereo not shown) [Compound 203], the EC50 is 526 nM at hTLR7 and 11400 nM on hTLR8.
On the same counts, the results for `CCCCNc1nc(N)nc2cn(Cc3ccc(C4CCCN4)cc3)nc12` (stereo not shown) [Compound 204] are 508 nM and 533 nM.
Consider `CCCCNc1nc(N)nc2cn(Cc3ccc(C4CCCN4)cc3)nc12` (stereo not shown) [Compound 205], for which the concentration for a half-maximal effect (EC50) is 409 nM at hTLR7 and 519 nM at hTLR8.
For `CCCCNc1nc(N)nc2cn(Cc3c(OC)cccc3OCCCC(=O)OC)nc12` [Compound 206], the EC50 on hTLR7 was determined as 380 nM; at hTLR8, 2640 nM.
Take `CCCCNc1nc(N)nc2cn(Cc3c(OC)cccc3OCCCCC(=O)OC)nc12` [Compound 207]: the results for the concentration giving a half-maximal response (EC50) on hTLR7 and on hTLR8 were 806 nM and 2340 nM, respectively.
`CCCCNc1nc(N)nc2cn(Cc3c(OC)cccc3OCCCCO)nc12` [Compound 208]: the concentration for a half-maximal effect (EC50) amounted to 299 nM at hTLR7 and 906 nM at hTLR8.
On the same counts, the results for `CCCCNc1nc(N)nc2cn(Cc3c(OC)cc(C(C)NC)cc3OC)nc12` (stereo not shown) [Compound 209] are 200 nM and 161 nM.
For `CCC[C@@H](CO)Nc1nc(N)nc2cn(Cc3c(OC)cc(CN(C)CCCN)cc3OC)nc12` [Compound 210] the same measures were 20100 nM and 15500 nM.
`CCCCNc1nc(N)nc2cn(Cc3c(OC)cc(C(C)NC)cc3OC)nc12` (stereo not shown) [Compound 211]: the 50% effective concentration (EC50) on hTLR7 came out at 365 nM; at hTLR8, 198 nM.
For the molecule `CCCCNc1nc(N)nc2cn(Cc3nnco3)nc12` [Compound 212], the 50% effective concentration (EC50) on hTLR7 is 7750 nM; at hTLR8, 8140 nM.
On the same counts, the results for `CCC[C@@H](CO)Nc1nc(N)nc2cn(Cc3c(OC)cc(CN(C)CCN)cc3OC)nc12` [Compound 213] are 4750 nM and 2230 nM.
As to `CCCCNc1nc(N)nc2cn(Cc3c(OC)cc(C(C)N)cc3OC)nc12` (stereo not shown) [Compound 214], the values for the EC50 on hTLR7 and on hTLR8 were 525 nM and 235 nM, respectively.
For `CCCCNc1nc(N)nc2cn(Cc3c(OC)cc(C(C)N)cc3OC)nc12` (stereo not shown) [Compound 215] the same measures were 474 nM and 224 nM.
In the case of `CCCCNc1nc(N)nc2cn(Cc3ccc(C(C)NCCC)cc3OC)nc12` (stereo not shown) [Compound 216], the EC50 was 106 nM on hTLR7 and 119 nM at hTLR8.
For `CCCCNc1nc(N)nc2cn(Cc3ccc(C(C)NCCC)cc3OC)nc12` (stereo not shown) [Compound 217] the same measures were 51.7 nM and 91.7 nM.
For `CCC[C@@H](CO)Nc1nc(N)nc2cn(Cc3c(OC)cc(CN(C)CCNC(=O)c4cccnc4)cc3OC)nc12` [Compound 218], the results for the concentration for a half-maximal effect (EC50) at hTLR7 and at hTLR8 were 6360 nM and 1490 nM, respectively.
Regarding `CCCCNc1nc(N)nc2cn(Cc3ccc(C(C)N(C)C)cc3OC)nc12` (stereo not shown) [Compound 219], the 50% effective concentration (EC50) was found to be 122 nM at hTLR7 and 275 nM at hTLR8.
For `CCCCNc1nc(N)nc2cn(Cc3ccc(C(C)N(C)C)cc3OC)nc12` (stereo not shown) [Compound 220] the same measures were 118 nM and 170 nM.
As to `CCC[C@@H](CO)Nc1nc(N)nc2cn(Cc3c(OC)cc(C(CN)N(C)CCC)cc3OC)nc12` (stereo partly shown) [Compound 221], the EC50 on hTLR7 worked out at 5090 nM; at hTLR8 it was 3490 nM.
`CCC[C@@H](CO)Nc1nc(N)nc2cn(Cc3c(OC)cc(C(C)N)cc3OC)nc12` (stereo partly shown) [Compound 222]: the figures for the EC50 at hTLR7 and at hTLR8 were 6280 nM and 1070 nM, respectively.
Regarding `CCC[C@@H](CO)Nc1nc(N)nc2cn(Cc3c(OC)cc(C(CN)N(C)CCC)cc3OC)nc12` (stereo partly shown) [Compound 223], the EC50 at hTLR7 came to 4840 nM; at hTLR8, 1800 nM.
For `CCC[C@@H](CO)Nc1nc(N)nc2cn(Cc3c(OC)cc(C(C)N)cc3OC)nc12` (stereo partly shown) [Compound 224], the EC50 on hTLR7 worked out at 3650 nM; at hTLR8, 2250 nM.
As to `CCCCNc1nc(N)nc2cn(Cc3ccc(C(N)CN)cc3OC)nc12` (stereo not shown) [Compound 227], the half-maximal effective concentration (EC50) on hTLR7 stood at 10700 nM; at hTLR8, 10800 nM.
On to `CCCCNc1nc(N)nc2cn(Cc3ccc(C(N)CCN)cc3OC)nc12` (stereo not shown) [Compound 228], for which the concentration for a half-maximal effect (EC50) is 2370 nM at hTLR7 and 7020 nM at hTLR8.
For `CCCCNc1nc(N)nc2cn(Cc3ccc(C(N)CCN)cc3OC)nc12` (stereo not shown) [Compound 229] the same measures were 2270 nM and 11400 nM.
